Assay results from patent US20130131161A1, “METHODS AND COMPOSITIONS FOR CARDIOVASCULAR DISEASES AND CONDITIONS” (priority 2009, published 2013).

Test system: Human umbilical vein endothelial cells (HUVECs)
Test: eNOS activity analysis: NO, ONOO− and NO/ONOO− release from HUVECs of 50 genotyped donors in response to LA-419 (Example 2)
Type: cell-based
Details: for % Change ONOO− (mean ± sd) / % Change NO (mean ± sd) / % Change NO/ONOO− (mean ± sd): LA-419 5 μM vs control; for Fold difference NO production / Fold difference NO/ONOO− ratio: LA-419 5 μM/control; for % Change Ratio, % Change NO/% Change ONOO− (mean ± sd) / Net increase over control NO (mean ± sd) / Net increase over control NO/ONOO− (mean ± sd) / Net increase over control ONOO− (mean ± sd) / Peak release NO (mean ± sd) / Peak release NO/ONOO− (mean ± sd) / Peak release ONOO− (mean ± sd): LA-419 5 μM
Description: Concurrent measurements of NO and ONOO^− were carried out with tandem electrochemical nanosensors combined into one working unit with a total diameter of 200-500 nm (FIG. 1). Their design was based on previously developed and well-characterized chemically modified carbon-fiber technology (Malinski and Taha, 1992; Lvovich and Scheeline, 1997). Each of the nanosensors was made by depositing a sensing material on the tip of a carbon fiber (length 4-5 μm, diameter 0.2-0.5 μm). The fibers were sealed with nonconductive epoxy and electrically connected to copper wires with conductive silver epoxy. A conductive film of polymeric nickel (II) tetrakis(3-methoxy-4-hydroxyphenyl)porphyrin for the NO-sensor and polymeric film of Mn (III) [2.2]paracyclophanylporphyrin was used for the ONOO^−-sensor.
A module of NO/ONOO^− nanosensors (diameter 1-2 μm) with a platinum wire (0.1 mm) counter electrode and saturated calomel reference electrode (SCE) were applied. Differential pulse voltammetry (DPV) and amperometry were performed with a computer-based Gamry VFP600 multichannel potentiostat. DPV was used to measure the basal NO and ONOO^− concentrations, and amperometry was used to measure changes in NO and ONOO^− concentrations from its basal level with time. The DPV current at the peak potential characteristic for NO oxidation (0.65 V) and ONOO^− reduction (−0.45 V) was directly proportional to the local concentrations of these compounds in the immediate vicinity of the sensor. Linear calibration curves (current vs. concentration) were constructed for each sensor from 10 nM to 3 μM before and after measurements with aliquots of NO and ONOO^− standard solutions, respectively. The detection limit of the sensors was 1.0 nM.
The quantification of each analyte (concentration in nM) was performed using a maximum current from amperograms and standard calibration curves. A reproducibility of measurements with nanosensors is relatively high (between 5-12%). […] The sensors were slowly raised 5±2 μm from the surface of a single endothelial cell. The eNOS agonist, calcium ionophore A23187 (CaI) as well as the different drugs were then added to the surrounding media at the cell surface with a nanoinjector that was also positioned by a computer controlled-micromanipulator.
This example describes the genotype-specific response of the three major eNOS variants to 1 μM and 5 μM concentrations of LA-419. The three major genetic polymorphisms studied were the Glu298Asp variant (E298D or 894G→T) in exon 7 of […], the −786T→C variant in the promoter region, and the intron 4 polymorphism (VNTR). All of these variants have possible effects on the cardiovascular system and endothelial dysfunction. For this study, human umbilical vein endothelial cells (HUVECs) from 50 donors between 18 and 32 years of age were used.
For the analysis several analysis techniques were employed. First, the effect of genotype on NO and ONOO^− release was explored within the different concentrations of LA-419 (control, 1 μM, 5 μM), calculated as the average peak release (nmols/L) of NO, ONOO^−, and NO/ONOO^−. The effect of genotype on the net increase in NO, ONOO^−, and NO/ONOO^− for LA-419 (1 μM and 5 μM) as compared to control was also measured. In addition, an analysis was done on the effect of genotype on the % change in NO, ONOO^−, and NO/ONOO^− production for LA-419 (1 μM and 5 μM), calculated as:
% Change=[(avg. LA-419−avg. control)/(avg. control)]*100
Finally, an evaluation was undertaken concerning the effect of genotype on the production of NO, ONOO^−, and NO/ONOO^− as the fold difference of control for LA-419 (1 μM and 5 μM), calculated as:
Fold Difference=(avg. LA-419)/(avg. control)
Within each calculation technique the results were compared for statistical significance using a non-parametric ANOVA Kruskal-Wallace test or a non-parametric Mann-Whitney U test. Statistical significance was set at a p-value <0.05 in a two-tailed distribution. […]

[1] = Caucasians, exon 7 major allele homozygote
[2] = Caucasians, exon 7 minor allele carriers
[3] = exon 7 major allele homozygote, all races
[4] = exon 7 minor allele carriers, all races
[5] = HUVECs G894T + T-786C Combination of all genotypes other than G/G + T/T
[6] = HUVECs G894T + T-786C variant G/G + T/C
[7] = HUVECs G894T + T-786C variant G/G + T/T (Reference)
[8] = HUVECs G894T + T-786C variant G/T + C/C
[9] = HUVECs G894T + T-786C variant G/T + T/C
[10] = HUVECs G894T + T-786C variant G/T + T/T
[11] = HUVECs G894T + T-786C variant T/T + C/C
[12] = HUVECs G894T + T-786C variant T/T + T/C

With `CC(=O)SC1COC2C(O[N+](=O)[O-])COC12` (stereo not drawn) [LA-419, S-(6-Nitro-oxi-hexahydro-furo[3,2-b]furan-3-1-il)thioacetate] the “% Change ONOO− (mean ± sd)” value (HUVECs Intron 4 variant b/a) was −19.70 (5.79) %, the “% Change NO (mean ± sd)” value (HUVECs Intron 4 variant b/b) was 13.52 (6.80) % and the “% Change NO/ONOO− (mean ± sd)” value (HUVECs Intron 4 variant b/b) was 42.24 (17.73) %. For the same compound, the “% Change ONOO− (mean ± sd)” value (HUVECs Intron 4 variant b/b) was −19.19 (7.76) %, the “% Change NO (mean ± sd)” value (HUVECs Intron 4 variant c/c) was 17.36 (0) % and the “% Change NO/ONOO− (mean ± sd)” value (HUVECs Intron 4 variant c/c) was 52.87 (0) %. For the same compound, the “% Change ONOO− (mean ± sd)” value (HUVECs Intron 4 variant c/c) was −22.99 (0) %, the “% Change NO (mean ± sd)” value (HUVECs T-786C variant C/C) was 11.63 (5.99) % and the “% Change NO/ONOO− (mean ± sd)” value (HUVECs T-786C variant C/C) was 42.33 (13.21) %. The “% Change ONOO− (mean ± sd)” value (HUVECs T-786C variant C/C) was −21.03 (7.77) %, the “% Change NO (mean ± sd)” value (HUVECs T-786C variant T/C) was 13.58 (6.82) % and the “% Change NO/ONOO− (mean ± sd)” value (HUVECs T-786C variant T/C) was 38.74 (13.67) %. The “% Change ONOO− (mean ± sd)” value (HUVECs T-786C variant T/C) was −17.73 (5.53) %, the “% Change NO (mean ± sd)” value (HUVECs T-786C variant T/T) was 16.16 (5.97) % and the “% Change NO/ONOO− (mean ± sd)” value (HUVECs T-786C variant T/T) was 49.09 (17.76) %. For the same compound, the “% Change ONOO− (mean ± sd)” value (HUVECs T-786C variant T/T) was −20.98 (8.19) %, the “Fold difference NO production” value [1] was 1.19±0.07 and the “Fold difference NO/ONOO− ratio” value [1] was 1.47±0.12. For the same compound, the “Fold difference NO production” value [2] was 1.11±0.05, the “Fold difference NO/ONOO− ratio” value [2] was 1.35±0.10 and the “Fold difference NO production” value (Caucasians, promoter major allele variant) was 1.17±0.08. For the same compound, the “Fold difference NO production” value [3] was 1.16±0.06, the “Fold difference NO/ONOO− ratio” value [3] was 1.48±0.18 and the “Fold difference NO production” value [4] was 1.13±0.06. The “Fold difference NO/ONOO− ratio” value [4] was 1.39±0.13, the “% Change Ratio, % Change NO/% Change ONOO− (mean ± sd)” value (HUVEC donor Race Asian) was −0.50 (0) and the “% Change Ratio, % Change NO/% Change ONOO− (mean ± sd)” value (HUVEC donor Race Black) was −0.79 (0.44). The “% Change Ratio, % Change NO/% Change ONOO− (mean ± sd)” value (HUVEC donor Race Not Reported) was −0.59 (0.08), the “Net increase over control NO (mean ± sd)” value [5] was 46.78 (22.38) nmols/L and the “Net increase over control NO/ONOO− (mean ± sd)” value [5] was −0.87 (0.81). For the same compound, the “Net increase over control ONOO− (mean ± sd)” value [5] was −68.74 (26.87) nmols/L, the “Peak release NO (mean ± sd)” value [5] was 398.12 (90.43) nmols/L and the “Peak release NO/ONOO− (mean ± sd)” value [5] was 1.43 (0.54). For the same compound, the “Peak release ONOO− (mean ± sd)” value [5] was 304.95 (81.70) nmols/L, the “Net increase over control NO (mean ± sd)” value [6] was 51.58 (25.77) nmols/L and the “Net increase over control NO/ONOO− (mean ± sd)” value [6] was −0.78 (0.51). For the same compound, the “Net increase over control ONOO− (mean ± sd)” value [6] was −66.54 (26.77) nmols/L, the “Peak release NO (mean ± sd)” value [6] was 397.25 (102.46) nmols/L and the “Peak release NO/ONOO− (mean ± sd)” value [6] was 1.56 (0.60). The “Peak release ONOO− (mean ± sd)” value [6] was 277.33 (69.85) nmols/L, the “Net increase over control NO (mean ± sd)” value [7] was 56.59 (19.21) nmols/L and the “Net increase over control NO/ONOO− (mean ± sd)” value [7] was −0.88 (0.54). For the same compound, the “Net increase over control ONOO− (mean ± sd)” value [7] was −77.59 (31.16) nmols/L, the “Peak release NO (mean ± sd)” value [7] was 399.67 (56.96) nmols/L and the “Peak release NO/ONOO− (mean ± sd)” value [7] was 1.48 (0.48). For the same compound, the “Peak release ONOO− (mean ± sd)” value [7] was 293.93 (83.07) nmols/L, the “Net increase over control NO (mean ± sd)” value [8] was 46.00 (0) nmols/L and the “Net increase over control NO/ONOO− (mean ± sd)” value [8] was −1.01 (0). The “Net increase over control ONOO− (mean ± sd)” value [8] was −45.67 (0) nmols/L, the “Peak release NO (mean ± sd)” value [8] was 434.33 (0) nmols/L and the “Peak release NO/ONOO− (mean ± sd)” value [8] was 1.72 (0). The “Peak release ONOO− (mean ± sd)” value [8] was 252.67 (0) nmols/L, the “Net increase over control NO (mean ± sd)” value [9] was 43.72 (19.86) nmols/L and the “Net increase over control NO/ONOO− (mean ± sd)” value [9] was −0.83 (0.84). The “Net increase over control ONOO− (mean ± sd)” value [9] was −65.59 (20.60) nmols/L, the “Peak release NO (mean ± sd)” value [9] was 387.90 (86.10) nmols/L and the “Peak release NO/ONOO− (mean ± sd)” value [9] was 1.34 (0.54). For the same compound, the “Peak release ONOO− (mean ± sd)” value [9] was 318.33 (82.55) nmols/L, the “Net increase over control NO (mean ± sd)” value [10] was 52.83 (20.89) nmols/L and the “Net increase over control NO/ONOO− (mean ± sd)” value [10] was −1.29 (1.15). For the same compound, the “Net increase over control ONOO− (mean ± sd)” value [10] was −71.50 (46.74) nmols/L, the “Peak release NO (mean ± sd)” value [10] was 433.58 (65.75) nmols/L and the “Peak release NO/ONOO− (mean ± sd)” value [10] was 1.71 (0.21). For the same compound, the “Peak release ONOO− (mean ± sd)” value [10] was 252.92 (13.69) nmols/L, the “Net increase over control NO (mean ± sd)” value [11] was 35.33 (20.27) nmols/L and the “Net increase over control NO/ONOO− (mean ± sd)” value [11] was −0.36 (0.18). For the same compound, the “Net increase over control ONOO− (mean ± sd)” value [11] was −94.89 (10.87) nmols/L, the “Peak release NO (mean ± sd)” value [11] was 348.78 (92.48) nmols/L and the “Peak release NO/ONOO− (mean ± sd)” value [11] was 1.19 (0.80). For the same compound, the “Peak release ONOO− (mean ± sd)” value [11] was 345.56 (123.07) nmols/L, the “Net increase over control NO (mean ± sd)” value [12] was 53.00 (50.91) nmols/L and the “Net increase over control NO/ONOO− (mean ± sd)” value [12] was −1.41 (1.74). The “Net increase over control ONOO− (mean ± sd)” value [12] was −64.83 (44.08) nmols/L, the “Peak release NO (mean ± sd)” value [12] was 453.00 (178.19) nmols/L and the “Peak release NO/ONOO− (mean ± sd)” value [12] was 1.23 (0.75). For the same compound, the “Peak release ONOO− (mean ± sd)” value [12] was 397.67 (96.64) nmols/L, the “% Change Ratio, % Change NO/% Change ONOO− (mean ± sd)” value (HUVECs G894T variant G/G) was −0.82 (0.40) and the “Net increase over control NO (mean ± sd)” value (HUVECs G894T variant G/G) was 55.05 (21.03) nmols/L. For the same compound, the “Net increase over control NO/ONOO− (mean ± sd)” value (HUVECs G894T variant G/G) was −0.85 (0.52), the “Net increase over control ONOO− (mean ± sd)” value (HUVECs G894T variant G/G) was −74.19 (29.80) nmols/L and the “Peak release NO (mean ± sd)” value (HUVECs G894T variant G/G) was 398.92 (71.74) nmols/L. For the same compound, the “Peak release NO/ONOO− (mean ± sd)” value (HUVECs G894T variant G/G) was 1.50 (0.51).
